Laboratory results from patent US9326968B2, “Composition for enhancing immunity containing compounds represented by chemical formulas 1-8 or sophora flavescens extract as active ingredient” (Korea Research Institute of Bioscience and Biotechnology, priority 2010, dated 2016).

How the values were obtained:
IRF3 [1] = assay: IRF3 activity/phosphorylation in THP-1 cells, western blot; assay type: cell-based, human; conditions: treated with the compound only
Method: First, in order to investigate the effects of the extract in activation of IRF3, THP-1 cells were prepared at a density of 1.5×10^6 cells/well and treated with 30 μg/ml of S. flavescens extract, 60 μg/ml of water fraction thereof, or 30 μg/ml of chloroform fraction thereof for 2 hours. After 2 hours of treatment with the extract and fractions thereof, the cells were put into tubes and pelleted down through centrifugation to remove culture media. Then the cell pellet was washed with PBS once and treated with cell lysis buffer to isolate total protein extracts, which were then subjected to western blot analysis. In this analysis, IRF3 protein level was measured.

IFN-β = IFN-β expression in THP-1 cells, Real-time PCR; assay type: cell-based, human; conditions: 10 μM, 30 μM, and 60 μM for 6 hours
Method: After 6 hours of treatment, the cells were placed in tubes and pelleted down through centrifugation to remove cell media, which was then washed with PBS once and RNA was extracted from the washed cells by using RNeasy Mini Elute Cleanup kit. The concentration and purity of RNA extract was measured by using 2100 Bioanalyzer system (Agilent Technologies), and cDNA was synthesized from this RNA extract by using Taqman reverse transcription reagents kit (Applied Biosystems). The expression level of IFN-β was measured by running Real-time PCR using SYBR Green PCR master mix kit (Applied Biosystem).
Subsequently, in order to investigate the effect of compound of Formula 1 in expression of IFN-β which is induced by IRF3 activation, the compound of Formula 1 was added to the cell group at a concentration of 10 μM, 30 μM, and 60 μM for 6 hours and then the expression level of IFNβ was measured.

IRF3 [2] = assay: IRF3 activation in THP-1 cells treated with poly (I:C), western blot; assay type: cell-based, human; conditions: 30 μM and 60 μM for 1 hour, then 50 μg/ml poly (I:C) for 3 hours, compared to poly (I:C) only
Method: First, in order to investigate the effect of the extract in IRF3 activation, THP-1 cells were prepared at a density of 1.5×10^6 cells/well, and treated with the compound of Formula 1 at a concentration of 30 μM and 60 μM for 1 hour and then treated with 50 μg/ml of poly (I:C) for 3 hours. After 3 hours of treatment, the cells were placed in a tube and pelleted down through centrifugation to remove cell media, which was then washed with PBS once and mixed with NE-PER Nuclear extraction reagent (Thermo scientific) and cell lysis buffer to isolate nuclear extract and total protein extract. The isolated extracts were subject to western blot analysis.

[3] = test system: rotavirus KJ56-1 (bovine rotavirus, G8P[7]); assay: Proliferation of rotavirus KJ56-1 in TF-104 cells; assay type: cell-based; conditions: MOI 0.01, 30 μM, 3 days
Method: In order to investigate the inhibitory effects of the above-disclosed compounds represented by Formulas 1 to 8 against proliferation of rotavirus, the following experiment was conducted using the fetal rhesus monkey kidney cell line TF-104. First, TF-104 cells (1×10^5 cells/well) were treated with rotavirus KJ56-1 (bovine rotavirus, […][7]) with multiplicity of infection (MOI) of 0.01 for 1 hour. Then the supernatant was removed from the cell pellet, and the pelleted cells were added to EMEM medium mixed with 1 μg/ml of trypsin and compounds of Formulas 1 to 8 and cultured at 37° C. for 3 days.

rotavirus 205-1 = assay: Proliferation of rotavirus 205-1 in TF-104 cells; assay type: cell-based, porcine rotavirus; conditions: 30 μM
TRIF-CFP = assay: Distribution of TRIF-CFP in transfected THP-1 cells treated with poly (I:C), confocal microscope; assay type: cell-based, human; conditions: THP-1 cells transfected with pcDNA3-TRIF-CFP, 30 μM, then 50 μg/ml poly (I:C) for 1 hour
Method: In order to monitor the changes in distribution of TRIF-CFP in vivo by the compound of Formula 1, THP-1 cells (1×10^6 cells/well) were transfected with 0.5 μg of pcDNA3-TRIF-CFP plasmid by using Nucleofector kit V (Lonza, Switzerland) and cultured at 37° C. for 2 days. Then, the transfected cells were placed in 8-chamber slide coated with Poly-L-Lysine and treated with the compound of Formula 1 at 30 μM, and treated with 50 μg/ml of poly (I:C) for 1 hour. After removing the supernatant, the cells were washed with PBS three times, and fixed onto the slide by applying 200 μl of 4% paraformaldehyde and slowfade gold antifade reagent. Then the changes in the distribution of TRIF-CFP were monitored under carl zeins LSM 510 META confocal microscope.

NFkB p65 = assay: TLR-3 signal pathway western blot, nuclear extract: NFkB p65; assay type: cell-based, human; conditions: THP-1 cells, 30 μM, 60 μM, and 100 μM 1 hour prior to 50 μg/ml poly (I:C) for 3 hours; concentration-dependent
Method: (§1) First, THP-1 cells were prepared at a density of 1.5×10^6 cells/well and cultured in culture medium RPMI 1640 which lacks FBS for 12 hours. Then, the cells were treated with the compound of Formula 1 at a concentration of 30 μM, 60 μM, and 100 μM 1 hour prior to the poly(I:C) treatment, and then treated with 50 μg/ml of poly (I:C) for 3 hours. After 3 hours of treatment, the cells were placed in a tube and pelleted down by centrifugation to remove cell media, washed with PBS once. Subsequently, the cells were added with NE-PER Nuclear extraction reagents (Thermo scientific) and cell lysis buffer to isolate nuclear extract and total protein extract which were then subject to western blot analysis. For the nuclear extract, the level of NFkB and c-Fos was monitored, and for the total protein extract, the level of MAPKs, IKK isoforms, and IRF3 was measured. […] Furthermore, the phosphorylation of MAPKs, i.e., ERK, JNK, and p-38 which act before AP-1 activation in the pathway was reduced by the compound of Formula 1 in a concentration-dependent manner (FIG. 9e).

c-Fos = assay: TLR-3 signal pathway western blot, nuclear extract: c-Fos; assay type: cell-based, human; conditions: THP-1 cells, 30 μM, 60 μM, and 100 μM 1 hour prior to 50 μg/ml poly (I:C) for 3 hours; concentration-dependent
Method: as §1

IKK = assay: TLR-3 signal pathway western blot, total protein: IKK phosphorylation; assay type: cell-based, human; conditions: THP-1 cells, 30 μM, 60 μM, and 100 μM 1 hour prior to 50 μg/ml poly (I:C) for 3 hours; concentration-dependent
Method: as §1

IkB = assay: TLR-3 signal pathway western blot, total protein: IkB phosphorylation; assay type: cell-based, human; conditions: THP-1 cells, 30 μM, 60 μM, and 100 μM 1 hour prior to 50 μg/ml poly (I:C) for 3 hours; concentration-dependent
Method: as §1

ERK = assay: TLR-3 signal pathway western blot, total protein: ERK phosphorylation; assay type: cell-based, human; conditions: THP-1 cells, 30 μM, 60 μM, and 100 μM 1 hour prior to 50 μg/ml poly (I:C) for 3 hours; concentration-dependent
Method: as §1

JNK = assay: TLR-3 signal pathway western blot, total protein: JNK phosphorylation; assay type: cell-based, human; conditions: THP-1 cells, 30 μM, 60 μM, and 100 μM 1 hour prior to 50 μg/ml poly (I:C) for 3 hours; concentration-dependent
Method: as §1

p-38 = assay: TLR-3 signal pathway western blot, total protein: p-38 phosphorylation; assay type: cell-based, human; conditions: THP-1 cells, 30 μM, 60 μM, and 100 μM 1 hour prior to 50 μg/ml poly (I:C) for 3 hours; concentration-dependent
Method: as §1

## C=C(C)C(CCC(C)(C)O)Cc1c(O)cc(O)c2c1OC(c1ccc(O)cc1O)CC2=O (stereo not shown) [Formula 1, 5,7,2′,4′-trihydroxy-8-(5-hydroxy-2-isoprenyl-5-methyl-hexyl-)flavanone]
IRF3 [1]
  IRF3 activity: concentration-dependent increased
IFN-β
  IFN-β expression: concentration-dependent increase
IRF3 [2]
  IRF3 activation: higher level of IRF3 activation
[3]
  proliferation of rotavirus KJ56-1: significantly inhibited
Rotavirus 205-1
  proliferation of rotavirus 205-1: significantly inhibited
TRIF-CFP
  distribution of TRIF-CFP: even distribution of TRIF-CFP in the cytoplasm
NFkB p65
  transport of NFkB p65 to nucleus: reduced
c-Fos
  transport of c-Fos to nucleus: reduced
IKK
  phosphorylation of IKK: reduced
IkB
  phosphorylation of IkB: reduced
ERK
  phosphorylation of ERK: reduced
JNK
  phosphorylation of JNK: reduced
p-38
  phosphorylation of p-38: reduced
